Literature values in patent publication EP4656183A1, “TIRZEPATIDE COMPOSITIONS AND PREPARATION METHOD” (Galenicum Health SLU, priority 2024, dated 2025).

Settings: buffer; several values = successive pKa values

pKa: ~ 7.5
SMILES: O=S(=O)(O)CCN1CCN(CCO)CC1 [HEPES]
